Results from US20260234178A1, “PYRANOSIDE COMPOUNDS AND METHODS” (JAMES COOK UNIVERSITY, priority 2022, published 2026).

Experiments:
Format in all cases: cell-based
IL-17A [1] = assay: Cytokine suppression assay, P/I-stimulated PBMC: IL-17A release; conditions: 10 μg/mL; P/I-stimulated human PBMC; 20 h treatment; relative to stimulated control
Excerpt: (§1) PBMCs from four healthy donors were isolated from buffy coats using Lymphoprep™ density gradient medium ([sequence] Technologies, Vancouver, Canada), according to the manufacturer's instructions. Isolated cells were cryopreserved in 90% heat-inactivated foetal calf serum (FCS) (Bovogen Biologicals) with 10% dimethyl sulfoxide (DMSO; Sigma-Aldrich, St. Louis, MO, USA) using vapour phase nitrogen until required. On the day of the experiment, PBMCs were thawed and removed from the freezing medium by washing with 9 mL pre-warmed culture medium and centrifugation at 300×g for 5 min. […] Thawed PBMCs were counted using a CASY cell counter (Roche Innovatis, Germany), and cell densities were adjusted to seed 100,000 cells/well into 96-well plates in a final volume of 100 μL culture medium.
(§2) For our cytokine suppression assays, inflammatory cytokines (IFN-γ, IL-17A, IL-8, and TNF) were induced in two ways. […] On the day of the experiment, cytokine concentrations were determined using a standard LEGENDplex™ human inflammation panel 1 (BioLegend®), LSRFortessa (BD), and LEGENDplex™ software (version 2022-02-10, Qognit, Inc.).

IL-8 = assay: Cytokine suppression assay, anti-CD3/anti-CD28 (Dynabead)-stimulated PBMC: IL-8 release; conditions: 10 μg/mL; anti-CD3/anti-CD28-stimulated human PBMC; 20 h
Excerpt: as §1, §2

IL-17A [2] = assay: Cytokine suppression assay, anti-CD3/anti-CD28 (Dynabead)-stimulated PBMC: IL-17A release; conditions: 10 μg/mL; anti-CD3/anti-CD28-stimulated human PBMC; 20 h
Excerpt: (§3) PBMCs from four healthy donors were isolated from buffy coats using Lymphoprep™ density gradient medium ([sequence] Technologies, Vancouver, Canada), according to the manufacturer's instructions. Isolated cells were cryopreserved in 90% heat-inactivated foetal calf serum (FCS) (Bovogen Biologicals) with 10% dimethyl sulfoxide (DMSO; Sigma-Aldrich, St. Louis, MO, USA) using vapour phase nitrogen until required. On the day of the experiment, PBMCs were thawed and removed from the freezing medium by washing with 9 mL pre-warmed culture medium and centrifugation at 300×g for 5 min. An R10 culture medium of RPMI-1640 media without L-glutamine (Gibco Thermo Fisher Scientific, Waltham, MA, USA), supplemented with 10% heat-inactivated foetal bovine serum (FBS; Bovogen Biologicals, Christchurch, New Zealand), 10,000 units/mL of penicillin+10,000 μg/mL of streptomycin (Thermo Fisher Scientific), and 1× GlutaMAX (Thermo Fisher Scientific) was used for all experiments. […] After incubation, the enzyme was removed by two additional washes with R10. Thawed PBMCs were counted using a CASY cell counter (Roche Innovatis, Germany), and cell densities were adjusted to seed 100,000 cells/well into 96-well plates in a final volume of 100 μL culture medium.
(§4) For our cytokine suppression assays, inflammatory cytokines (IFN-γ, IL-17A, IL-8, and TNF) were induced in two ways. First, the PBMCs from three donors were activated with a cell stimulation cocktail of 50 ng/mL phorbol 12-myristate 13-acetate and 1 μg/mL ionomycin (P/I; eBioscience). P/1-stimulated cells were treated with 10 μg/mL of U. metrosideros compounds, PCE, CsA (Sigma-Aldrich), or remained untreated. Second, the PBMCs from four donors were cultured in the presence of Dynabeads Human T-Activator CD3/CD28 (Gibco) at a cell-to-bead ratio of 1:1. […] On the day of the experiment, cytokine concentrations were determined using a standard LEGENDplex™ human inflammation panel 1 (BioLegend®), LSRFortessa (BD), and LEGENDplex™ software (version 2022-02-10, Qognit, Inc.).

IFN-γ [3] = assay: Cytokine suppression assay, P/I-stimulated PBMC: IFN-γ release; conditions: 10 μg/mL; P/I-stimulated human PBMC; 20 h treatment; relative to stimulated control
Excerpt: as §3, §4

IFN-γ [4] = assay: Cytokine suppression assay, anti-CD3/anti-CD28 (Dynabead)-stimulated PBMC: IFN-γ release; conditions: 10 μg/mL; anti-CD3/anti-CD28-stimulated human PBMC; 20 h
Excerpt: as §1, §2

| Compound | reduction of IL-17A levels (IL-17A [1]) [%] | inhibition of IL-8 release (IL-8) [%] | suppression of Dynabead-induced IL-17A secretion (IL-17A [2]) [%] | suppression of IFN-γ secretion (IFN-γ [3]) [%] | suppression of Dynabead-induced IFN-γ secretion (IFN-γ [4]) [%] |
| --- | --- | --- | --- | --- | --- |
| CC1=CC[C@@H](C(C)(C)O[C@@H]2O[C@H](COC(=O)c3cc(O)c(O)c(O)c3)[C@@H](O)[C@H](O)[C@H]2O)CC1 [Compound 5, (4S)-α-terpineol 8-O-β-D-(6-O-galloyl)glucopyranoside] | 60.9 | 24.3 | 53.7 | 79.6 | 59.3 |
| galloyl-lawsoniaside A [Compound 4] | 79.1 | 40.5 | 80.9 | 95.3 | 78.5 |
| CC1=CC(=O)CC(C)(C)[C@@]1(O)/C=C/[C@@H](C)O[C@@H]1O[C@H](CO)[C@@H](O)[C@H](O)[C@H]1O [Compound 3, (6S,9R)-roseoside] | – | – | 38.2 | 64.4 | – |
